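Where inhibition never reached the appropriate level, the endpoint shown equals the highest concentration tested. Otherwise, values were interpolated linearly from a five-concentration, 48-hour dose response in 96-well plates. The concentration for 50% growth inhibition is given as GI50.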 The source made the active and inactive calls. No stated cut-off is given here; in the data, active = GI50 up to about 1.1 µM and inactive = higher.
Columns and labels:
Test in all cases: NCI anticancer screen, dose series, 48 h
786-0 = test system: 786-0
A498 = test system: A498
A549 = test system: A549
ACHN = test system: ACHN
BT-549 = test system: BT-549
CAKI-1 = test system: CAKI-1
CCRF-CEM = test system: CCRF-CEM
COLO 205 = test system: COLO 205
DU-145 = test system: DU-145
EKVX = test system: EKVX
HCC 2998 = test system: HCC 2998
HCT-116 = test system: HCT-116
HCT-15 = test system: HCT-15
HL-60 = test system: HL-60
HOP-62 = test system: HOP-62
HOP-92 = test system: HOP-92
HT-29 = test system: HT-29
Hs-578T = test system: Hs-578T
IGROV-1 = test system: IGROV-1
K562 = test system: K562
KM12 = test system: KM12
LOX IMVI = test system: LOX IMVI
MCF7 = test system: MCF7
MDA-MB-231 = test system: MDA-MB-231
MDA-MB-435 = test system: MDA-MB-435
MDA-N = test system: MDA-N
MOLT-4 = test system: MOLT-4
Malme-3M = test system: Malme-3M
NCI-H226 = test system: NCI-H226
NCI-H23 = test system: NCI-H23
NCI-H460 = test system: NCI-H460
NCI-H522 = test system: NCI-H522
NCI/ADR-RES = test system: NCI/ADR-RES
OVCAR-3 = test system: OVCAR-3
OVCAR-4 = test system: OVCAR-4
OVCAR-5 = test system: OVCAR-5
OVCAR-8 = test system: OVCAR-8
PC-3 = test system: PC-3
RPMI-8226 = test system: RPMI-8226
RXF 393 = test system: RXF 393
SF-268 = test system: SF-268
SF-295 = test system: SF-295
SF-539 = test system: SF-539
SK-MEL-28 = test system: SK-MEL-28
SK-MEL-5 = test system: SK-MEL-5
SN12C = test system: SN12C
SNB-19 = test system: SNB-19
SNB-75 = test system: SNB-75
SR = test system: SR
SW-620 = test system: SW-620
TK-10 = test system: TK-10
U-251 = test system: U-251
UACC-257 = test system: UACC-257
UO-31 = test system: UO-31
M14 = test system: M14
SK-MEL-2 = test system: SK-MEL-2
SK-OV-3 = test system: SK-OV-3
T47D = test system: T47D
UACC-62 = test system: UACC-62

In the case of `CC(C)(C)OC(=O)NC(CSCc1ccc(C(=O)c2ccccc2)cc1)C(=O)O` (stereo not given), the GI50 (786-0) is reported as > 100 µM (inactive), the GI50 (A498) is reported as > 100 µM (inactive) and the GI50 (A549) is reported as > 100 µM (inactive). For the same molecule, the GI50 (ACHN) was > 100 µM (inactive), the GI50 (BT-549) was > 100 µM (inactive) and the GI50 (CAKI-1) was > 100 µM (inactive). The GI50 (CCRF-CEM) was > 100 µM (inactive), the GI50 (COLO 205) was > 100 µM (inactive) and the GI50 (DU-145) was > 100 µM (inactive). The GI50 (EKVX) was > 100 µM (inactive), the GI50 (HCC 2998) was > 100 µM (inactive) and the GI50 (HCT-116) was > 100 µM (inactive). The GI50 (HCT-15) was over 100 µM, the GI50 (HL-60) was > 100 µM (inactive) and the GI50 (HOP-62) was > 100 µM (inactive). The GI50 (HOP-92) was > 100 µM (inactive), the GI50 (HT-29) was > 100 µM (inactive) and the GI50 (Hs-578T) was 34.9 µM (inactive). The GI50 (IGROV-1) was > 100 µM (inactive), the GI50 (K562) was > 100 µM (inactive) and the GI50 (KM12) was > 100 µM (inactive). For the same molecule, the GI50 (LOX IMVI) was > 100 µM (inactive), the GI50 (MCF7) was > 100 µM (inactive) and the GI50 (MDA-MB-231) was > 100 µM (inactive). For the same molecule, the GI50 (MDA-MB-435) was > 100 µM (inactive), the GI50 (MDA-N) was > 100 µM (inactive) and the GI50 (MOLT-4) was > 100 µM (inactive). For the same molecule, the GI50 (Malme-3M) was > 100 µM (inactive), the GI50 (NCI-H226) was > 100 µM (inactive) and the GI50 (NCI-H23) was > 100 µM (inactive). For the same molecule, the GI50 (NCI-H460) was > 100 µM (inactive), the GI50 (NCI-H522) was > 100 µM (inactive) and the GI50 (NCI/ADR-RES) was > 100 µM (inactive). For the same molecule, the GI50 (OVCAR-3) was > 100 µM (inactive), the GI50 (OVCAR-4) was 88.9 µM (inactive) and the GI50 (OVCAR-5) was > 100 µM (inactive). For the same molecule, the GI50 (OVCAR-8) was > 100 µM (inactive), the GI50 (PC-3) was > 100 µM (inactive) and the GI50 (RPMI-8226) was 61.5 µM (inactive). For the same molecule, the GI50 (RXF 393) was > 100 µM (inactive), the GI50 (SF-268) was > 100 µM (inactive) and the GI50 (SF-295) was > 100 µM (inactive). For the same molecule, the GI50 (SF-539) was > 100 µM (inactive), the GI50 (SK-MEL-28) was > 100 µM (inactive) and the GI50 (SK-MEL-5) was > 100 µM (inactive). For the same molecule, the GI50 (SN12C) was > 100 µM (inactive), the GI50 (SNB-19) was > 100 µM (inactive) and the GI50 (SNB-75) was > 100 µM (inactive). For the same molecule, the GI50 (SR) was 87.9 µM (inactive), the GI50 (SW-620) was > 100 µM (inactive) and the GI50 (TK-10) was > 100 µM (inactive). For the same molecule, the GI50 (U-251) was > 100 µM (inactive), the GI50 (UACC-257) was > 100 µM (inactive) and the GI50 (UO-31) was > 100 µM (inactive).

With `O=C1C2CCCCC2C(=O)N1n1c(-c2ccccc2)n[nH]c1=O` (stereo not given) the GI50 (786-0) was > 100 µM (inactive), the GI50 (A498) was > 100 µM (inactive) and the GI50 (A549) was > 100 µM (inactive). For the same molecule, the GI50 (ACHN) was > 100 µM (inactive), the GI50 (BT-549) was > 100 µM (inactive) and the GI50 (CAKI-1) was > 100 µM (inactive). The GI50 (CCRF-CEM) was > 100 µM (inactive), the GI50 (COLO 205) was > 100 µM (inactive) and the GI50 (EKVX) was > 100 µM (inactive). For the same molecule, the GI50 (HCC 2998) was > 100 µM (inactive), the GI50 (HCT-116) was > 100 µM (inactive) and the GI50 (HCT-15) was over 100 µM. For the same molecule, the GI50 (HOP-62) was > 100 µM (inactive), the GI50 (HOP-92) was > 100 µM (inactive) and the GI50 (HT-29) was > 100 µM (inactive). The GI50 (Hs-578T) was > 100 µM (inactive), the GI50 (IGROV-1) was > 100 µM (inactive) and the GI50 (K562) was > 100 µM (inactive). The GI50 (KM12) was > 100 µM (inactive), the GI50 (LOX IMVI) was > 100 µM (inactive) and the GI50 (M14) was > 100 µM (inactive). The GI50 (MCF7) was > 100 µM (inactive), the GI50 (MDA-MB-231) was > 100 µM (inactive) and the GI50 (MDA-MB-435) was > 100 µM (inactive). For the same molecule, the GI50 (MDA-N) was > 100 µM (inactive), the GI50 (MOLT-4) was > 100 µM (inactive) and the GI50 (Malme-3M) was > 100 µM (inactive). For the same molecule, the GI50 (NCI-H226) was > 100 µM (inactive), the GI50 (NCI-H23) was > 100 µM (inactive) and the GI50 (NCI-H460) was > 100 µM (inactive). For the same molecule, the GI50 (NCI-H522) was > 100 µM (inactive), the GI50 (NCI/ADR-RES) was > 100 µM (inactive) and the GI50 (OVCAR-3) was > 100 µM (inactive). For the same molecule, the GI50 (OVCAR-4) was > 100 µM (inactive), the GI50 (OVCAR-5) was > 100 µM (inactive) and the GI50 (OVCAR-8) was > 100 µM (inactive). For the same molecule, the GI50 (PC-3) was > 100 µM (inactive), the GI50 (RPMI-8226) was > 100 µM (inactive) and the GI50 (RXF 393) was > 100 µM (inactive). For the same molecule, the GI50 (SF-268) was > 100 µM (inactive), the GI50 (SF-295) was > 100 µM (inactive) and the GI50 (SF-539) was > 100 µM (inactive). The GI50 (SK-MEL-2) was > 100 µM (inactive), the GI50 (SK-MEL-5) was > 100 µM (inactive) and the GI50 (SK-OV-3) was > 100 µM (inactive). The GI50 (SN12C) was > 100 µM (inactive), the GI50 (SNB-19) was > 100 µM (inactive) and the GI50 (SNB-75) was > 100 µM (inactive). The GI50 (SR) was > 100 µM (inactive), the GI50 (SW-620) was > 100 µM (inactive) and the GI50 (T47D) was > 100 µM (inactive). For the same molecule, the GI50 (TK-10) was > 100 µM (inactive), the GI50 (U-251) was > 100 µM (inactive) and the GI50 (UACC-257) was > 100 µM (inactive). The GI50 (UACC-62) was > 100 µM (inactive) and the GI50 (UO-31) was > 100 µM (inactive).
